According to patent publication US9447136B2, “Semisynthetic derivatives of Nystatin A1” (BLIRT S.A., priority 2012, dated 2016):
≈ marks a conversion by molar mass, not a printed value. Read-outs that look alike come from different tables or passages of the source.

Columns and labels:
[1] = tested on: Aspergillus niger LOCK E201; test: Antifungal activity in vitro, serial dilution in RPMI 1640; assay type: cell-based; conditions: Table 2B
In short: (§1)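 Serial dilution, RPMI 1640 pH 7.0 (M27-A2 reference method); A531 read-out. IC50 = interpolated conc. at 50% of control A531; MIC = lowest conc. with A531 ≤20% of control.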

[2] = tested on: Candida albicans ATCC 10231; test: as above; assay type: cell-based; conditions: for Antifungal activity Candida albicans ATCC 10231 IC50 / Antifungal activity Candida albicans ATCC 10231 MIC: Table 2A, RPMI 1640, pH 7.0; for Antifungal activity Candida albicans ATCC 10231 IC50: A531 50% of control; for Antifungal activity Candida albicans ATCC 10231 MIC: A531 at most 20% of control; for MIC Candida albicans ATCC 10231: Table 2B
In short: as §1

Candida arborea KKP 319 = test: as above; assay type: cell-based; conditions: Table 2B
In short: as §1

[3] = tested on: Candida dubliniensis CBS 7987; test: as above; assay type: cell-based; conditions: Table 2B
In short: as §1

[4] = tested on: Candida glabrata DSM 11226; test: as above; assay type: cell-based; conditions: Table 2A; RPMI 1640, pH 7.0
In short: as §1

Candida krusei DSM 6128 = test: as above; assay type: cell-based; conditions: Table 2A; RPMI 1640, pH 7.0
In short: as §1

[5] = tested on: Candida lipolytica KKP 322; test: as above; assay type: cell-based; conditions: Table 2B
In short: as §1

[6] = tested on: Candida parapsilosis DSM 5784; test: as above; assay type: cell-based; conditions: Table 2B
In short: as §1

[7] = tested on: Candida pseudotropicalis KKP 324; test: as above; assay type: cell-based; conditions: Table 2B
In short: as §1

[8] = tested on: Candida quilliermondii DSM 11947; test: as above; assay type: cell-based; conditions: Table 2B
In short: as §1

[9] = tested on: Candida stellatoidea CBS 1905; test: as above; assay type: cell-based; conditions: Table 2B
In short: as §1

[10] = tested on: Candida tropicalis KKP 334; test: as above; assay type: cell-based; conditions: Table 2A; RPMI 1640, pH 7.0
In short: as §1

[11] = tested on: Saccharomyces cerevisiae ATCC 9763; test: as above; assay type: cell-based; conditions: for Antifungal activity Saccharomyces cerevisiae ATCC 9763 MIC: Table 2A, RPMI 1640, pH 7.0, A531 at most 20% of control; for MIC Saccharomyces cerevisiae ATCC 9763: Table 2B
In short: as §1

[12] = tested on: Trichoderma viride LOCK E159; test: as above; assay type: cell-based; conditions: Table 2B
In short: as §1

Human erythrocytes = test: Hemotoxicity (hemolytic activity)
In short: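 Human erythrocytes in saline (2×10^7/ml) were incubated with serially diluted compound at 37 °C for 30 min, then centrifuged. Released hemoglobin was read as A540 against 0.1% Triton X-100 as full hemolysis. EH50 is the interpolated concentration giving 50% of the control A540.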

Candida albicans 5674 = test: Antifungal activity towards resistant (MDR) strains; assay type: cell-based; conditions: C. albicans 5674 overexpressing CDR1 and CDR2
Method: (§2) The determination of antifungal activity was performed by the serial dilutions method in buffered RPMI 1640 medium, in a 96-wells microplates, according to the standard procedure (National Committee for Clinical Laboratory Standards. Reference method for broth dilution antifungal susceptibility testing of yeast, approved standard, 2nd ed. M27-A2 vol. 22 Wayne, Pa., 2002). The optical density of cells suspension was measured using a microplates reader (Victor^3, Perkin-Elmer) at the wavelength λ=660 nm (A660). On the basis of received results the diagrams on interrelation between the A660 value and the concentration of tested compound were made. From these graphs MIC values were read, that are the concentrations of tested compounds, in the presence at which A660 value is at most 20% of A660 value measured in control sample.

Candida albicans B3 = test: as above; assay type: cell-based; conditions: fluconazole sensitive, parent strain for B4
Method: as §2

Candida albicans B4 = test: as above; assay type: cell-based; conditions: fluconazole-resistant due to the overexpression of CaMDR1
Method: as §2

Candida albicans F2 = test: as above; assay type: cell-based; conditions: fluconazole sensitive, parent strain for F5
Method: as §2

Candida albicans F5 = test: as above; assay type: cell-based; conditions: fluconazole-resistant due to the overexpression of CaMDR1 and ERG11
Method: as §2

Candida albicans Gu4 = test: as above; assay type: cell-based; conditions: fluconazole sensitive, parent strain for Gu5
Method: as §2

Candida albicans Gu5 = test: as above; assay type: cell-based; conditions: fluconazole-resistant due to the overexpression of CDR1 and CDR2
Method: as §2

Candida albicans STY19 = test: as above; assay type: cell-based; conditions: 5674 mutant derivative, deletion of CDR1
Method: as §2

Candida albicans STY31 = test: as above; assay type: cell-based; conditions: 5674 mutant derivative, deletion of CDR1 and CDR2
Method: as §2

Candida albicans STY7 = test: as above; assay type: cell-based; conditions: 5674 mutant derivative, deletion of CDR2
Method: as §2

CCRF-CEM = test: Cytotoxic activity against mammalian cells in tissue culture (MTT); assay type: cell-based, human
In short: (§3)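 Cells at 1.2×10^4/well were exposed to serial 2× DMSO dilutions for 120 h at 37 °C: CCRF-CEM in RPMI 1640 + 10% FBS, HepG2 in MEM + 10% FBS, LLC-PK1 in Medium 199 + 3% FBS. MTT was added for 4 h and A540 read. IC50 is the concentration halving A540 versus DMSO control.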

HepG2 = test: as above; assay type: cell-based, human
In short: as §3

LLC-PK1 = test: as above; assay type: cell-based, pig
In short: as §3

Row | Compound | MIC Aspergillus niger LOCK E201 [1] | Antifungal activity Candida albicans ATCC 10231 IC50 [2] | Antifungal activity Candida albicans ATCC 10231 MIC [2] | MIC Candida albicans ATCC 10231 [2] | MIC Candida arborea KKP 319 (Candida arborea KKP 319) | MIC Candida dubliniensis CBS 7987 [3] | Antifungal activity Candida glabrata DSM 11226 MIC [4] | Antifungal activity Candida krusei DSM 6128 MIC (Candida krusei DSM 6128) | MIC Candida lipolytica KKP 322 [5] | MIC Candida parapsilosis DSM 5784 [6] | MIC Candida pseudotropicalis KKP 324 [7] | MIC Candida quilliermondii DSM 11947 [8] | MIC Candida stellatoidea CBS 1905 [9] | Antifungal activity Candida tropicalis KKP 334 MIC [10] | Antifungal activity Saccharomyces cerevisiae ATCC 9763 MIC [11] | MIC Saccharomyces cerevisiae ATCC 9763 [11] | MIC Trichoderma viride LOCK E159 [12] | MIC Candida albicans 5674 (Candida albicans 5674) | MIC Candida albicans B3 (Candida albicans B3) | MIC Candida albicans B4 (Candida albicans B4) | further results
1 | CC1OC(O[C@H]2/C=C/C=C/C=C/C=C/CC/C=C/C=C/[C@H](C)[C@@H](O)[C@@H](C)[C@H](C)OC(=O)C[C@H](O)C[C@H](O)C[C@H](O)CC[C@@H](O)[C@H](O)CC3(O)C[C@H](O)[C@@H](C(=O)O)[C@H](C2)O3)C(O)C(NC(=O)[C@H](N)CC(=O)OC(C)(C)C)C1O (stereo partly drawn) [Compound N41, N-D-(O-tert-butyl)asparagylnystatin A1] | 8 µg/mL (≈ 7.29 µM) | 4.69 µg/mL | 8 µg/mL | 8 µg/mL (≈ 7.29 µM) | 8 µg/mL (≈ 7.29 µM) | 2 µg/mL (≈ 1.82 µM) | 8 µg/mL | 8 µg/mL | 8 µg/mL (≈ 7.29 µM) | 8 µg/mL (≈ 7.29 µM) | 4 µg/mL (≈ 3.65 µM) | 8 µg/mL (≈ 7.29 µM) | 4 µg/mL (≈ 3.65 µM) | 4 µg/mL | 4 µg/mL | 4 µg/mL (≈ 3.65 µM) | 32 µg/mL (≈ 29.2 µM) | 16 µg/mL (≈ 14.6 µM) | 8 µg/mL (≈ 7.29 µM) | 16 µg/mL (≈ 14.6 µM) | % of hemolysis at the concentration 60 μg ml^−1 (Human erythrocytes): 0.15%; MIC Candida albicans F2 (Candida albicans F2): 16 µg/mL (≈ 14.6 µM); MIC Candida albicans F5 (Candida albicans F5): 16 µg/mL (≈ 14.6 µM); MIC Candida albicans Gu4 (Candida albicans Gu4): 8 µg/mL (≈ 7.29 µM); MIC Candida albicans Gu5 (Candida albicans Gu5): 8 µg/mL (≈ 7.29 µM); MIC Candida albicans STY19 (Candida albicans STY19): 0.5 µg/mL (≈ 0.456 µM); MIC Candida albicans STY31 (Candida albicans STY31): 16 µg/mL (≈ 14.6 µM); MIC Candida albicans STY7 (Candida albicans STY7): 16 µg/mL (≈ 14.6 µM); Cytotoxicity IC50 CCRF-CEM (CCRF-CEM): >100 µg/mL; Cytotoxicity IC50 HepG2 (HepG2): >100 µg/mL; Cytotoxicity IC50 LLC-PK1 (LLC-PK1): >100 µg/mL
2 | N-[L-(N,N-dimethyl)phenylalanyl]nystatin A1 [Compound N45] | 8 µg/mL | 2.83 µg/mL | 4 µg/mL | 4 µg/mL | 8 µg/mL | 2 µg/mL | 4 µg/mL | 8 µg/mL | 8 µg/mL | 4 µg/mL | 4 µg/mL | 4 µg/mL | 4 µg/mL | 4 µg/mL | 2 µg/mL | 2 µg/mL | 16 µg/mL | 8 µg/mL | 4 µg/mL | 4 µg/mL | % of hemolysis at the concentration 300 μg ml^−1 (Human erythrocytes): 7.11%; EH10 (Human erythrocytes; human erythrocytes, concentration causing 10% of hemolysis): >300 µg/mL; MIC Candida albicans F2 (Candida albicans F2): 8 µg/mL; MIC Candida albicans F5 (Candida albicans F5): 8 µg/mL; MIC Candida albicans Gu4 (Candida albicans Gu4): 4 µg/mL; MIC Candida albicans Gu5 (Candida albicans Gu5): 4 µg/mL; MIC Candida albicans STY19 (Candida albicans STY19): 4 µg/mL; MIC Candida albicans STY31 (Candida albicans STY31): 8 µg/mL; MIC Candida albicans STY7 (Candida albicans STY7): 8 µg/mL; Cytotoxicity IC50 CCRF-CEM (CCRF-CEM; CCRF-CEM, 120 h, MTT): >100 µg/mL; Cytotoxicity IC50 HepG2 (HepG2; HepG2, 120 h, MTT): >100 µg/mL; Cytotoxicity IC50 LLC-PK1 (LLC-PK1; LLC-PK1, 120 h, MTT): >100 µg/mL
